Test results as given in the supplement of paper PMC10307832.

What was measured:
Experiment in all cases: relative viability (nuclei count vs DMSO), 5 days (fraction); higher = more cells survive
[1] = compound: CCN(CCO)CCCC(C)Nc1ccnc2cc(Cl)ccc12 [Hydroxychloroquine] + CC1(C)CCC(c2ccc(Cl)cc2)=C(CN2CCN(c3ccc(C(=O)NS(=O)(=O)c4ccc(N[C@H](CCN5CCOCC5)CSc5ccccc5)c(S(=O)(=O)C(F)(F)F)c4)cc3)CC2)C1 [Navitoclax] (partner 0.5 µM)
Outline: (§1)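 A single step with final 0.05% Triton X-100, 1% formaldehyde and 1 ug/ml Hoechst fixed the cells and stained nuclei 5 days after treatment. Lung cancer cell lines in 1536-well plates had been treated by pin tool the day after seeding with one drug alone or a fixed anchor-drug dose plus five library-drug doses (not always all listed) in √10 steps, and nuclei were counted on 4× images. Relative viability is the ratio of nuclei in treated wells to nuclei in vehicle wells, taken as the median of duplicate plates.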

[2] = compound: CCN(CCO)CCCC(C)Nc1ccnc2cc(Cl)ccc12 [Hydroxychloroquine] + C[C@@H](Oc1cc(-c2cnn(C3CCNCC3)c2)cnc1N)c1c(Cl)ccc(F)c1Cl [Crizotinib] (partner 1 µM)
Outline: as §1

[3] = compound: CCN(CCO)CCCC(C)Nc1ccnc2cc(Cl)ccc12 [Hydroxychloroquine] + Cc1nc(Nc2ncc(C(=O)Nc3c(C)cccc3Cl)s2)cc(N2CCN(CCO)CC2)n1 [Dasatinib] (partner 0.075 µM)
Outline: as §1

[4] = compound: CCN(CCO)CCCC(C)Nc1ccnc2cc(Cl)ccc12 [Hydroxychloroquine] + O=C(CCCCCCC(=O)Nc1ccccc1)NO [Vorinostat] (partner 1 µM)
Outline: as §1

Cell Line	relative viability ([1]; first compound 0.5 µM)	relative viability ([1]; first compound 1.581 µM)	relative viability ([1]; first compound 5 µM)	relative viability ([1]; first compound 15.81 µM)	relative viability ([1]; first compound 50 µM)	relative viability ([2]; first compound 0.5 µM)	relative viability ([2]; first compound 1.581 µM)	relative viability ([2]; first compound 5 µM)	relative viability ([2]; first compound 15.81 µM)	relative viability ([2]; first compound 50 µM)	relative viability ([3]; first compound 0.5 µM)	relative viability ([3]; first compound 1.581 µM)	relative viability ([3]; first compound 5 µM)	relative viability ([3]; first compound 15.81 µM)	relative viability ([3]; first compound 50 µM)	relative viability ([4]; first compound 0.5 µM)	relative viability ([4]; first compound 1.581 µM)	relative viability ([4]; first compound 5 µM)	relative viability ([4]; first compound 15.81 µM)	relative viability ([4]; first compound 50 µM)
NCI-H1437	1.08	1.1	1.11	1.14	1.11	0.824	0.985	0.963	0.97	1.03	0.371	0.493	0.375	0.429	0.509	0.853	0.862	0.85	0.844	0.891
NCI-H2170	0.54	0.695	0.631	0.644	0.549	1.24	1.24	1.35	1.27	1.57	0.645	0.601	0.558	0.62	0.673	0.784	0.839	0.829	0.878	0.95
NCI-H460	1.24	1.35	1.19	1.36	1.41	0.985	0.91	0.938	0.745	0.952	0.576	0.481	0.457	0.527	0.599	0.733	0.865	0.812	0.815	0.83
SW 1573	0.971	0.884	1.01	1.03	0.972	0.782	0.839	0.872	0.76	0.753	0.465	0.379	0.506	0.414	0.676	0.689	0.627	0.878	0.734	0.951
BEN	0.051	0.0669	0.0688	0.0612	0.0766	0.848	0.728	0.863	0.947	1.01	0.273	0.332	0.316	0.267	0.331	0.632	0.563	0.638	0.635	0.608
LC-2-ad	0.337	0.332	0.478	0.416	0.405	0.44	0.426	–	0.473	0.547	0.56	0.684	0.603	0.639	0.595	0.707	0.691	0.694	0.702	0.697
COR-L23	1.03	0.926	1.24	1.31	1.12	0.786	0.573	0.895	0.868	0.86	0.472	0.543	0.533	0.421	0.534	0.409	0.455	0.545	0.453	0.415
NCI-H1650	1.06	1.06	1.24	1.04	1.29	0.92	0.903	0.999	1.01	1.04	0.425	0.357	0.241	0.296	0.303	0.48	0.593	0.634	0.663	0.608
SK-LU-1	0.747	0.96	0.851	1.21	0.658	0.948	0.895	0.911	0.928	0.938	0.214	0.168	0.174	0.16	0.17	0.779	0.719	0.804	0.799	0.643
NCI-H1915	0.783	0.773	0.84	0.831	0.76	0.953	0.935	0.937	0.982	1.01	0.337	0.281	0.305	0.331	0.305	0.521	0.456	0.48	0.549	0.5
NCI-H647	1.23	0.938	1.29	1.19	1.31	1.23	1.07	1.21	1.12	1.33	0.226	0.214	0.168	0.194	0.184	0.662	0.704	0.603	0.616	0.612
NCI-H2009	1.16	1.22	1.21	1.13	1.25	1.02	1	1.06	1.05	1.08	0.326	0.253	0.312	0.298	0.329	0.764	0.718	0.75	0.747	0.729
NCI-H2126	0.859	0.804	0.848	0.884	0.833	1.12	1.06	1.11	0.984	1.13	0.724	0.564	0.596	0.622	0.615	0.834	0.728	0.749	0.733	0.897
